Results from patent publication US20230131899A1, “INHIBITORS OF MICROBIALLY INDUCED AMYLOID” (Axial Therapeutics, Inc., priority 2020, published 2023).
Where two headings read alike, the source gives them in different places.

Molecular target: T1, E. coli CsgA (Escherichia coli, UniProt P28307)
T1 construct: made in house; host or cells: E. coli NEB 3016 slyD::kan, pET11d
Assay: In vitro ThioflavinT assay of CsgA aggregation (CsgA ThT Assay)
Assay type: biochemical
Details: CsgA 2 μM, white plates; for remaining activity at 25 µM: compound 25 μM; for remaining activity at 100 µM: compound 100 μM
In short: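 Purified C-terminal His-tagged CsgA, monomerised by desalting and 30-kDa filtration, at 2-20 μM with 20-40 μM ThT in 50 mM potassium phosphate pH 7.3, 1% DMSO, compounds 3.125-200 uM; room temperature, fluorescence (ex 438/em 495 nm) read every 15 min. Background-subtracted signal expressed as percent inhibition versus vehicle at 6-6.5 or 8-9 h, or as percent control AUC.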

[1] = read-out: CsgA ThT Assay (2 μM CsgA) % Control Bmax 25 μM, activity range, class symbol
[2] = read-out: CsgA ThT Assay (2 μM CsgA) % Control Bmax 25 μM, mean Bmax as percentage of DMSO control
[3] = read-out: CsgA ThT Assay (2 μM CsgA) % Control Bmax 100 μM, activity range, class symbol
[4] = read-out: CsgA ThT Assay (2 μM CsgA) % Control Bmax 100 μM, mean Bmax as percentage of DMSO control

T1 sequence (P28307 23-151): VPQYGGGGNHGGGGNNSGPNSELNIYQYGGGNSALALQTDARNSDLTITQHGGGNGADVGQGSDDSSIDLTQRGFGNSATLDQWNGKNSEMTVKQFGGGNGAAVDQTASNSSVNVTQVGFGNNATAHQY

SMILES	remaining activity at 25 µM [1] [%]	remaining activity at 25 µM [2] [%]	remaining activity at 100 µM [3] [%]	remaining activity at 100 µM [4] [%]
CCCN1CC(C(=O)O)n2c(c(-c3cccc(C(F)(F)F)c3)c(C(F)(F)c3cccc4ccccc34)cc2=O)S1(=O)=O (stereo not drawn) [Compound 138, 8-(difluoro(naphthalen-1-yl)methyl)-6-oxo-2-propyl-9-(3-(trifluoromethyl)phenyl)-3,4-dihydro-2H,6H-pyrido[1,2-e][1,2,5]thiadiazine-4-carboxylic acid 1,1-dioxide]	> 60	73	31 to 60	43
CCc1c(Cc2cccc3ccccc23)c(-c2cccc(C(F)(F)F)c2)c2n(c1=O)C(C(=O)O)CN2Cc1ccccc1 (stereo not drawn) [Compound 140, 1-benzyl-6-ethyl-7-(naphthalen-1-ylmethyl)-5-oxo-8-(3-(trifluoromethyl)phenyl)-1,2,3,5-tetrahydroimidazo[1,2-a]pyridine-3-carboxylic acid]	31 to 60	35	11 to 31	19
CCCN1CC(C(=O)O)n2c(c(-c3cccc(C(F)(F)F)c3)c(Cc3cccc4ccccc34)c(O)c2=O)S1(=O)=O (stereo not drawn) [Compound 141, 7-hydroxy-8-(naphthalen-1-ylmethyl)-6-oxo-2-propyl-9-(3-(trifluoromethyl)phenyl)-3,4-dihydro-2H,6H-pyrido[1,2-e][1,2,5]thiadiazine-4-carboxylic acid 1,1-dioxide]	> 60	80	> 60	94
CCCN1CC(C(=O)O)n2c(c(-c3cccc(C(F)(F)F)c3)c(Cc3cccc4ccccc34)c(Cl)c2=O)S1(=O)=O (stereo not drawn) [Compound 142, 7-chloro-8-(naphthalen-1-ylmethyl)-6-oxo-2-propyl-9-(3-(trifluoromethyl)phenyl)-3,4-dihydro-2H,6H-pyrido[1,2-e][1,2,5]thiadiazine-4-carboxylic acid 1,1-dioxide]	> 60	87	> 60	121
CCCN1CC(C(=O)O)n2c(c(-c3cccc(C(F)(F)F)c3)c(Cc3cccc4ccccc34)c(OCC)c2=O)S1(=O)=O (stereo not drawn) [Compound 143, 7-ethoxy-8-(naphthalen-1-ylmethyl)-6-oxo-2-propyl-9-(3-(trifluoromethyl)phenyl)-3,4-dihydro-2H,6H-pyrido[1,2-e][1,2,5]thiadiazine-4-carboxylic acid 1,1-dioxide]	> 60	87	> 60	88
CCCN1CC(C(=O)O)n2c(c(-c3cccc(C(F)(F)F)c3)c(Cc3cccc4ccccc34)c(NC(=O)C(C)C)c2=O)S1(=O)=O (stereo not drawn) [Compound 152, 7-isobutyramido-8-(naphthalen-1-ylmethyl)-6-oxo-2-propyl-9-(3-(trifluoromethyl)phenyl)-3,4-dihydro-2H,6H-pyrido[1,2-e][1,2,5]thiadiazine-4-carboxylic acid 1,1-dioxide]	> 60	90	> 60	107
CCCN1CC(C(=O)O)n2c(c(-c3cccc(C(F)(F)F)c3)c(Cc3cccc4ccccc34)c(NC(=O)CC)c2=O)S1(=O)=O (stereo not drawn) [Compound 153, 8-(naphthalen-1-ylmethyl)-6-oxo-7-propionamido-2-propyl-9-(3-(trifluoromethyl)phenyl)-3,4-dihydro-2H,6H-pyrido[1,2-e][1,2,5]thiadiazine-4-carboxylic acid 1,1-dioxide]	> 60	91	> 60	83
CCCNC(=O)c1c(Cc2cccc3ccccc23)c(-c2cccc(C(F)(F)F)c2)c2n(c1=O)C(C(=O)O)CN(C)S2(=O)=O (stereo not drawn) [Compound 154, 2-methyl-8-(naphthalen-1-ylmethyl)-6-oxo-7-(propylcarbamoyl)-9-(3-(trifluoromethyl)phenyl)-3,4-dihydro-2H,6H-pyrido[1,2-e][1,2,5]thiadiazine-4-carboxylic acid 1,1-dioxide]	> 60	92	> 60	63
O=C(O)C1CN(Cc2ccccc2)c2c(-c3cccc(C(F)(F)F)c3)c(C(F)(F)c3cccc4ccccc34)c(Br)c(=O)n21 (stereo not drawn) [Compound 155, 1-benzyl-6-bromo-7-(difluoro(naphthalen-1-yl)methyl)-5-oxo-8-(3-(trifluoromethyl)phenyl)-1,2,3,5-tetrahydroimidazo[1,2-a]pyridine-3-carboxylic acid]	31 to 60	57	> 60	112
CCNC(=O)c1c(Cc2cccc3ccccc23)c(-c2cccc(C(F)(F)F)c2)c2n(c1=O)C(C(=O)O)CN(C)S2(=O)=O (stereo not drawn) [Compound 156, 7-(ethylcarbamoyl)-2-methyl-8-(naphthalen-1-ylmethyl)-6-oxo-9-(3-(trifluoromethyl)phenyl)-3,4-dihydro-2H,6H-pyrido[1,2-e][1,2,5] thiadiazine-4-carboxylic acid 1,1-dioxide]	> 60	80	> 60	90
CN1CC(C(=O)O)n2c(c(-c3cccc(C(F)(F)F)c3)c(Cc3cccc4ccccc34)c(C(=O)NC(C)(C)C)c2=O)S1(=O)=O (stereo not drawn) [Compound 158, 7-(tert-butylcarbamoyl)-2-methyl-8-(naphthalen-1-ylmethyl)-6-oxo-9-(3-(trifluoromethyl)phenyl)-3,4-dihydro-2H,6H-pyrido[1,2-e][1,2,5]thiadiazine-4-carboxylic acid 1,1-dioxide]	> 60	69	> 60	72
CN1CC(C(=O)O)n2c(c(-c3cccc(C(F)(F)F)c3)c(Cc3cccc4ccccc34)c(C(=O)N3CCOCC3)c2=O)S1(=O)=O (stereo not drawn) [Compound 160, 2-methyl-7-(morpholine-4-carbonyl)-8-(naphthalen-1-ylmethyl)-6-oxo-9-(3-(trifluoromethyl)phenyl)-3,4-dihydro-2H,6H-pyrido[1,2-e][1,2,5] thiadiazine-4-carboxylic acid 1,1-dioxide]	> 60	101	> 60	116
CCc1c(Cc2cccc3ccccc23)c(-c2cccc(C(F)(F)F)c2)c2n(c1=O)C(C(=O)O)CN2Cc1ccc(OC)cc1 (stereo not drawn) [Compound 161, 6-ethyl-1-(4-methoxybenzyl)-7-(naphthalen-1-ylmethyl)-5-oxo-8-(3-(trifluoromethyl)phenyl)-1,2,3,5-tetrahydroimidazo[1,2-a]pyridine-3-carboxylic acid]	31 to 60	54	11 to 31	29
CCCN1CC(C(=O)O)n2c1c(-c1cccc(C(F)(F)F)c1)c(Cc1cccc3ccccc13)c(Cl)c2=O (stereo not drawn) [Compound 162, 6-chloro-7-(naphthalen-1-ylmethyl)-5-oxo-1-propyl-8-(3-(trifluoromethyl)phenyl)-1,2,3,5-tetrahydroimidazo[1,2-a]pyridine-3-carboxylic acid]	31 to 60	34	31 to 60	49
CCCCN1CC(C(=O)O)n2c1c(-c1cccc(C(F)(F)F)c1)c(Cc1cccc3ccccc13)c(Cl)c2=O (stereo not drawn) [Compound 163, 1-butyl-6-chloro-7-(naphthalen-1-ylmethyl)-5-oxo-8-(3-(trifluoromethyl)phenyl)-1,2,3,5-tetrahydroimidazo[1,2-a]pyridine-3-carboxylic acid]	31 to 60	33	31 to 60	42
CC(C)CN1CC(C(=O)O)n2c1c(-c1cccc(C(F)(F)F)c1)c(Cc1cccc3ccccc13)c(Cl)c2=O (stereo not drawn) [Compound 164, 6-chloro-1-isobutyl-7-(naphthalen-1-ylmethyl)-5-oxo-8-(3-(trifluoromethyl)phenyl)-1,2,3,5-tetrahydroimidazo[1,2-a]pyridine-3-carboxylic acid]	31 to 60	52	31 to 60	42
O=C(O)C1CN(CC2CCCC2)c2c(-c3cccc(C(F)(F)F)c3)c(Cc3cccc4ccccc34)c(Cl)c(=O)n21 (stereo not drawn) [Compound 167, 6-chloro-1-(cyclopentylmethyl)-7-(naphthalen-1-ylmethyl)-5-oxo-8-(3-(trifluoromethyl)phenyl)-1,2,3,5-tetrahydroimidazo[1,2-a]pyridine-3-carboxylic acid]	> 60	65	31 to 60	49
N#Cc1cccc(CN2CC(C(=O)O)n3c2c(-c2cccc(C(F)(F)F)c2)c(Cc2cccc4ccccc24)c(Cl)c3=O)c1 (stereo not drawn) [Compound 168, 6-chloro-1-(3-cyanobenzyl)-7-(naphthalen-1-ylmethyl)-5-oxo-8-(3-(trifluoromethyl)phenyl)-1,2,3,5-tetrahydroimidazo[1,2-a]pyridine-3-carboxylic acid]	> 60	76	31 to 60	47
